# Patent US7582645B2, “Pyrimidine derivatives for treatment of hyperproliferative disorders” (Bayer Pharmaceuticals Corporation, priority 2003, dated 2009)
# Structures can show the parent of a compound that is named as a salt.
# Test system: HCT116 cells
# Assay: HCT116 cytotoxic activity assay (Alamar Blue, 72 h)
# Format: cell-based
# Settings: Homo sapiens, HCT-116, 72 h compound exposure, greater than 500 nM but less than or equal to 2 μM
# Protocol: Representative compounds of this invention were tested for cytotoxicity using the above-described assay procedure with the following results: […]
row,SMILES,IC50 [nM]
1,"COc1ccc(-c2cc(Nc3ccc(Oc4ccnc(C#N)c4)cc3)nc(N)n2)cc1N [Example 172, 4-(4-{[2-amino-6-(3-amino-4-methoxyphenyl)pyrimidin-4-yl]amino}phenoxy)pyridine-2-carbonitrile]",500 to 2000
2,"Nc1nc(Nc2ccc(Oc3ccnc(C(F)(F)F)c3)cc2)cc(-c2ccc(O)cc2C(F)(F)F)n1 [Example 176, 4-{2-amino-6-[(4-{[2-(trifluoromethyl)pyridin-4-yl]oxy}phenyl)amino]pyrimidin-4-yl}-3-(trifluoromethyl)phenol]",500 to 2000
3,"COc1ccc(-c2cc(Nc3ccc(Oc4ccnc(C(F)(F)F)c4)cc3)nc(N)n2)cc1OC [Example 189, 6-(3,4-dimethoxyphenyl)-N4*-(4-{[2-(trifluoromethyl)pyridin-4-yl]oxy}phenyl)pyrimidine-2,4-diamine]",500 to 2000
4,"Nc1nc(Nc2ccc(Oc3ccnc(C(F)(F)F)c3)cc2)cc(-c2ccccc2N)n1 [Example 194, 6-(2-aminophenyl)-N4*-(4-{[2-(trifluoromethyl)pyridin-4-yl]oxy}phenyl)pyrimidine-2,4-diamine]",500 to 2000
5,"Nc1nc(Nc2ccc(Oc3ccnc(C(F)(F)F)c3)cc2)cc(-c2cccc(C(F)(F)F)c2)n1 [Example 197, 6-[3-(trifluoromethyl)phenyl]-N4*-(4-{[2-(trifluoromethyl)pyridin-4-yl]oxy}phenyl)pyrimidine-2,4-diamine]",500 to 2000
6,"N#Cc1cccc(-c2cc(Nc3ccc(Oc4ccnc(C(F)(F)F)c4)cc3)nc(N)n2)c1 [Example 198, 3-{2-amino-6-[(4-{[2-(trifluoromethyl)pyridin-4-yl]oxy}phenyl)amino]pyrimidin-4-yl}benzonitrile]",500 to 2000
7,"COc1ccc(C(C)C)cc1-c1cc(Nc2ccc(Oc3ccnc(C(F)(F)F)c3)cc2)nc(N)n1 [Example 201, 6-(5-isopropyl-2-methoxyphenyl)-N4*-(4-{[2-(trifluoromethyl)pyridin-4-yl]oxy}phenyl)pyrimidine-2,4-diamine]",500 to 2000

# Same assay, conditions: Homo sapiens, HCT-116, 72 h compound exposure, greater than 2 μM
row,SMILES,IC50 [nM]
1,"COc1cc(-c2cc(Nc3ccc(Oc4ccnc(C#N)c4)cc3)nc(N)n2)ccc1NC(=O)OC(C)(C)C [Example 178, tert-butyl {4-[2-amino-6-({4-[(2-cyanopyridin-4-yl)oxy]phenyl}amino)pyrimidin-4-yl]-2-methoxyphenyl}carbamate]",> 2000

# Same assay, conditions: Homo sapiens, HCT-116, 72 h compound exposure, less than or equal to 500 nM
row,SMILES,IC50 [nM]
1,"Nc1nc(Nc2ccc(Oc3ccnc(C(F)(F)F)c3)cc2)cc(-c2cc(F)ccc2F)n1 [Example 160, 6-(2,5-difluorophenyl)-N4*-(4-{[2-(trifluoromethyl)pyridin-4-yl]oxy}phenyl)pyrimidine-2,4-diamine]",≤ 500
2,"Nc1nc(Nc2ccc(Oc3ccnc(C(F)(F)F)c3)cc2)cc(-c2ccccc2OC(F)(F)F)n1 [Example 161, 6-[2-(trifluoromethoxy)phenyl]-N4*-(4-{[2-(trifluoromethyl)pyridin-4-yl]oxy}phenyl)pyrimidine-2,4-diamine]",≤ 500
3,"CC(C)c1ccccc1-c1cc(Nc2ccc(Oc3ccnc(C(F)(F)F)c3)cc2)nc(N)n1 [Example 162, 6-(2-isopropylphenyl)-N4*- (4-{[2-(trifluoromethyl)pyridin-4-yl]oxy}phenyl) pyrimidine-2,4-diamine]",≤ 500
4,"CCc1ccccc1-c1cc(Nc2ccc(Oc3ccnc(CN)c3)cc2)nc(N)n1 [Example 163, N4*-(4-{[2-(aminomethyl)pyridin-4-yl]oxy}phenyl)-6-(2-ethylphenyl)pyrimidine-2,4-diamine]",≤ 500
5,"Nc1ccc(-c2cc(Nc3ccc(Oc4ccnc(C(F)(F)F)c4)cc3)nc(N)n2)cc1 [Example 164, 6-(4-aminophenyl)-N4*-(4-{[2-(trifluoromethyl)pyridin-4-yl]oxy}phenyl) pyrimidine-2,4-diamine hydrochloride]",≤ 500
6,"COc1cc(-c2cc(Nc3ccc(Oc4ccnc(C(F)(F)F)c4)cc3)nc(N)n2)ccc1O [Example 166, 4-{2-amino-6-[(4-{[2-(trifluoromethyl)pyridin-4-yl]oxy}phenyl)amino]pyrimidin-4-yl}-2-methoxyphenol]",≤ 500
7,"Nc1nc(Nc2ccc(Oc3ccnc(C(F)(F)F)c3)cc2)cc(-c2cccc(O)c2)n1 [Example 167, 3-{2-amino-6-[(4-{[2-(trifluoromethyl)pyridin-4-yl]oxy}phenyl)amino]pyrimidin-4-yl}phenol]",≤ 500
8,"COc1ccc(-c2cc(Nc3ccc(Oc4ccnc(C(F)(F)F)c4)cc3)nc(N)n2)cc1N [Example 168, 6-(3-amino-4-methoxyphenyl)-N4*-(4-{[2-(trifluoromethyl)pyridin-4-yl]oxy}phenyl) pyrimidine-2,4-diamine]",≤ 500
9,"Nc1cccc(-c2cc(Nc3ccc(Oc4ccnc(C(F)(F)F)c4)cc3)nc(N)n2)c1 [Example 170, 6-(3-aminophenyl)-N4*-(4-{[2-(trifluoromethyl)pyridin-4-yl]oxy}phenyl) pyrimidine-2,4-diamine hydrochloride]",≤ 500
10,"COc1cc(-c2cc(Nc3ccc(Oc4ccnc(C#N)c4)cc3)nc(N)n2)ccc1O [Example 171, 4-(4-{[2-amino-6-(4-hydroxy-3-methoxyphenyl)pyrimidin-4-yl]amino}phenoxy)pyridine-2-carbonitrile]",≤ 500
11,"COc1cc(-c2cc(Nc3ccc(Oc4ccnc(C(N)=O)c4)cc3)nc(N)n2)ccc1N [Example 173, 4-(4-{[2-amino-6-(4-amino-3-methoxyphenyl)pyrimidin-4-yl]amino}phenoxy)pyridine-2-carboxamide]",≤ 500
12,"Cc1cc(O)ccc1-c1cc(Nc2ccc(Oc3ccnc(C(F)(F)F)c3)cc2)nc(N)n1 [Example 174, 4-{2-amino-6-[(4-{[2-(trifluoromethyl)pyridin-4-yl]oxy}phenyl)amino]pyrimidin-4-yl}-3-methylphenol]",≤ 500
13,"Nc1nc(Nc2ccc(Oc3ccnc(C(F)(F)F)c3)cc2)cc(-c2ccccc2CO)n1 [Example 175, (2-{2-amino-6-[(4-{[2-(trifluoromethyl)pyridin-4-yl]oxy}phenyl)amino]pyrimidin-4-yl}phenyl) methanol]",≤ 500
14,"Nc1nc(Nc2ccc(Oc3ccnc(C(F)(F)F)c3)cc2)cc(-c2ccc(N)c(F)c2)n1 [Example 177, 6-(4-amino-3-fluorophenyl)-N4*-(4-{[2-(trifluoromethyl)pyridin-4-yl]oxy}phenyl)pyrimidine-2,4-diamine]",≤ 500
15,"Cc1cc(-c2cc(Nc3ccc(Oc4ccnc(C(F)(F)F)c4)cc3)nc(N)n2)ccc1N [Example 180, 6-(4-amino-3-methylphenyl)-N4*-(4-{[2-(trifluoromethyl)pyridin-4-yl]oxy}phenyl)pyrimidine-2,4-diamine]",≤ 500
16,"Nc1ccc(-c2cc(Nc3ccc(Oc4ccnc(C(F)(F)F)c4)cc3)nc(N)n2)cn1 [Example 181, 6-(6-aminopyridin-3-yl)-N4*-(4-{[2-(trifluoromethyl)pyridin-4-yl]oxy}phenyl)pyrimidine-2,4-diamine]",≤ 500
17,"N#Cc1cc(Oc2ccc(Nc3cc(-c4ccc(N)nc4)nc(N)n3)cc2)ccn1 [Example 183, 4-(4-{[2-amino-6-(6-aminopyridin-3-yl)pyrimidin-4-yl]amino}phenoxy)pyridine-2-carbonitrile]",≤ 500
18,"COc1cc(-c2cc(Nc3ccc(Oc4ccnc(C(F)(F)F)c4)cc3)nc(N)n2)ccc1OS(N)(=O)=O [Example 185, 4-{2-amino-6-[(4-{[2-(trifluoromethyl)pyridin-4-yl]oxy}phenyl)amino]pyrimidin-4-yl}-2-methoxyphenyl sulfamate]",≤ 500
19,"Nc1nc(Nc2ccc(Oc3ccnc(C(F)(F)F)c3)cc2)cc(-c2ccc(-c3ccccc3)cc2)n1 [Example 187, 6-biphenyl-4-yl-N4*-(4-{[2-(trifluoromethyl)pyridin-4-yl]oxy}phenyl) pyrimidine-2,4-diamine]",≤ 500
20,"Nc1nc(Nc2ccc(Oc3ccnc(C(F)(F)F)c3)cc2)cc(-c2cccs2)n1 [Example 188, 6-(2-thienyl)-N4*-(4-{[2-(trifluoromethyl)pyridin-4-yl]oxy}phenyl)pyrimidine-2,4-diamine]",≤ 500
21,"COc1ccc(-c2cc(Nc3ccc(Oc4ccnc(C(F)(F)F)c4)cc3)nc(N)n2)cc1 [Example 190, 6-(4-methoxyphenyl)-N4*-(4-{[2-(trifluoromethyl)pyridin-4-yl]oxy}phenyl)pyrimidine-2,4-diamine]",≤ 500
22,"COc1ccc(-c2cc(Nc3ccc(Oc4ccnc(C(F)(F)F)c4)cc3)nc(N)n2)cn1 [Example 191, 6-(6-methoxypyridin-3-yl)-N4*-(4-{[2-(trifluoromethyl)pyridin-4-yl]oxy}phenyl)pyrimidine-2,4-diamine]",≤ 500
23,"Nc1nc(Nc2ccc(Oc3ccnc(C(F)(F)F)c3)cc2)cc(-c2cccc(F)c2)n1 [Example 192, 6-(3-fluorophenyl)-N4*-(4-{[2-(trifluoromethyl)pyridin-4-yl]oxy}phenyl)pyrimidine-2,4-diamine]",≤ 500
24,"Nc1nc(Nc2ccc(Oc3ccnc(C(F)(F)F)c3)cc2)cc(-c2ccccc2F)n1 [Example 193, 6-(2-fluorophenyl)-N4*-(4-{[2-(trifluoromethyl)pyridin-4-yl]oxy}phenyl)pyrimidine-2,4-diamine]",≤ 500
25,"Nc1nc(Nc2ccc(Oc3ccnc(C(F)(F)F)c3)cc2)cc(-c2ccoc2)n1 [Example 195, 6-(3-furyl)-N4*-(4-{[2-(trifluoromethyl)pyridin-4-yl]oxy}phenyl)pyrimidine-2,4-diamine]",≤ 500
26,"Nc1nc(Nc2ccc(Oc3ccnc(C(F)(F)F)c3)cc2)cc(-c2ccc(F)cc2)n1 [Example 196, 6-(4-fluorophenyl)-N4*-(4-{[2-(trifluoromethyl)pyridin-4-yl]oxy}phenyl)pyrimidine-2,4-diamine]",≤ 500
27,"CN(C)c1ccc(-c2cc(Nc3ccc(Oc4ccnc(C(F)(F)F)c4)cc3)nc(N)n2)cc1 [Example 199, 6-[4-(dimethylamino)phenyl]-N4*-(4-{[2-(trifluoromethyl)pyridin-4-yl]oxy}phenyl)pyrimidine-2,4-diamine]",≤ 500
28,"CCc1cccc(-c2cc(Nc3ccc(Oc4ccnc(C(F)(F)F)c4)cc3)nc(N)n2)c1 [Example 200, 6-(3-ethylphenyl)-N4*-(4-{[2-(trifluoromethyl)pyridin-4-yl]oxy}phenyl)pyrimidine-2,4-diamine]",≤ 500
